Measured values reported in ChEMBL document CHEMBL1201862, “PubChem BioAssay data set” (2004).
Active and inactive are the calls of the source.

Key:
[1] = biological target: T1, Leucine aminopeptidase (Plasmodium falciparum 3D7, UniProt Q8IL11); experiment: P. falciparum M17LAP inhibitors, primary screen, biochemical, fluorogenic H-Leu-NHMec substrate, 1536-well (AID 1619); format: functional
T1 sequence (Q8IL11 whole entry): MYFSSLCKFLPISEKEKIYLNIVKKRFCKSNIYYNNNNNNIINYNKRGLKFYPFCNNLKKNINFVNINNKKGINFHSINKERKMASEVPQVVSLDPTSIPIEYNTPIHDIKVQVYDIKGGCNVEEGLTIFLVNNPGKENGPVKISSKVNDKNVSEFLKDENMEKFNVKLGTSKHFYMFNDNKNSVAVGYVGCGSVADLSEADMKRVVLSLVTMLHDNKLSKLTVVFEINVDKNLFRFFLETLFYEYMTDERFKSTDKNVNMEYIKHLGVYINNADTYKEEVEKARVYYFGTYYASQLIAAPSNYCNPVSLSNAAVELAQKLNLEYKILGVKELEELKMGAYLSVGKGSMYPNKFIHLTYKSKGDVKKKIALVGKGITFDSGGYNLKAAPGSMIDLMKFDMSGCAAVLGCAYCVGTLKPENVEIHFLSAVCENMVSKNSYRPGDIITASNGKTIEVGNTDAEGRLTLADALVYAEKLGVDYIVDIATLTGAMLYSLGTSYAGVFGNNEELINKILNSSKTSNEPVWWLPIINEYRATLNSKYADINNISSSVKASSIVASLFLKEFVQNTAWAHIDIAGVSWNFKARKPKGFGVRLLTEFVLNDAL

[2] = biological target: T2, RNA-binding protein pos-1 (Caenorhabditis elegans, UniProt G5EF15); experiment: inhibitors of POS-1/mex-3 RNA binding, dose response, biochemical, fluorescence polarization (AID 1964);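 further: purified POS-1 fused to maltose binding protein made in E. coli; potency of compounds blocking POS-1 binding to fluorescent RNA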
T2 sequence (G5EF15 whole entry): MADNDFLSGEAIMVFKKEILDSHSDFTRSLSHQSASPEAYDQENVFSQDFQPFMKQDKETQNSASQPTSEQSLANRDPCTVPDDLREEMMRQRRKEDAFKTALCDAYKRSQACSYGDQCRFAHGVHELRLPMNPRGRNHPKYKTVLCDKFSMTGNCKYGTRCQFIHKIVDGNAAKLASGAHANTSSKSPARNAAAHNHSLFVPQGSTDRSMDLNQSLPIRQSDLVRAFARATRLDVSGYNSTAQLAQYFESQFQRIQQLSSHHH

[3] = biological target: T3, SUMO-activating enzyme (Homo sapiens, UniProt Q9UBT2); experiment: SUMOylation inhibitor hit validation, confirmation, SUMOylation inhibitor project, biochemical, AlphaScreen (AID 2018); format: functional
[4] = biological target: T4, Zinc finger protein mex-5 (Caenorhabditis elegans, UniProt Q9XUB2); experiment: MEX-5/TCR-2 RNA interaction inhibitors, dose response, biochemical, C. elegans, fluorescence polarization (AID 1960)
T4 sequence (Q9XUB2 whole entry): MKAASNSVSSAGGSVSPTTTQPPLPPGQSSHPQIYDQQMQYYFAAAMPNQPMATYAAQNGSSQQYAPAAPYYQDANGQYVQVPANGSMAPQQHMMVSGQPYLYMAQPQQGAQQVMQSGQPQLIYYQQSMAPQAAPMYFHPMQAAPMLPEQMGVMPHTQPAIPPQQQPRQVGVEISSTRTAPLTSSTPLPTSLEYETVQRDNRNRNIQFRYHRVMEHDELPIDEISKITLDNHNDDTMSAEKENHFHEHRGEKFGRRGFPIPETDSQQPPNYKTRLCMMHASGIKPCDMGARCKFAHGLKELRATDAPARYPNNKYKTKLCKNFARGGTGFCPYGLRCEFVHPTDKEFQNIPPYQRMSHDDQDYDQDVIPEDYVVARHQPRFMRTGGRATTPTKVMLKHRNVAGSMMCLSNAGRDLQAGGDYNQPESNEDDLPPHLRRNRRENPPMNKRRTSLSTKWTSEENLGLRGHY

[5] = biological target: T3, SUMO-activating enzyme; experiment: inhibitors of in vitro SUMOylation cascade, primary screen, biochemical, HTRF, uHTS (AID 2006); format: protein-complex assay
[6] = biological target: Induced myeloid leukemia cell differentiation protein Mcl-1 (Homo sapiens, UniProt Q07820); format: functional
[7] = biological target: Eukaryotic translation initiation factor 4E (Mus musculus, UniProt P63073); experiment: eIF4E–eIF4G protein interaction inhibitors, dose response, biochemical, TR-FRET (AID 855); format: functional;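 further: potency for disrupting eIF4E binding to eIF4GI seen as loss of FRET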
[8] = biological target: Acyl-homoserine lactone acylase PvdQ (Pseudomonas aeruginosa (strain LESB58), UniProt Q9I194); experiment: P. aeruginosa PvdQ acylase inhibitors, dose response, biochemical, fluorescence, plate reader and imaging, cherry-picks (AID 493231)
[9] = Luminescence Cell-Based Dose Retest to Confirm Inhibitors of Cancer Stem Cells. [Related pubchem assays (depositor defined):AID2717, AID2721]; format: functional; settings: Homo sapiens
[10] = inhibition of K1F phage lysis, E. coli UTI89, bacterial capsule biogenesis inhibitors, alamar blue (AID 488966); format: functional
[11] = biological target: Glucose-6-phosphate 1-dehydrogenase (Homo sapiens, UniProt P11413); experiment: human G6PD enzyme inhibitors, dose response, selectivity assay for P. falciparum G6PD inhibitor project, biochemical, fluorescence (AID 504792); format: functional
[12] = biological target: Cystic fibrosis transmembrane conductance regulator/Golgi-associated PDZ and coiled-coil motif-containing protein (Homo sapiens, UniProt P13569+Q9HD26); experiment: CAL PDZ peptide-binding inhibitors, dose response, biochemical, fluorescence polarization, Cerulean-tagged CAL PDZ, cherry-picks (AID 504773)
[13] = biological target: Nonstructural protein 1 (Influenza A virus, UniProt Q194T2); format: functional, Influenza A virus (A/California/07/2009(H1N1))
[14] = biological target: Heat shock protein HSP 90-alpha (Homo sapiens, UniProt P07900); format: functional, organism-based
[15] = human group III sPLA2 inhibitors, dose response, biochemical, QFRET, IC50 (AID 743457);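 further: green fluorescence rise as the enzyme cleaves BODIPY PC-A2 in liposomes; potency for inhibition of the enzyme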
[16] = biological target: Melanin-concentrating hormone receptor 1 (Homo sapiens, UniProt Q99705); experiment: Late-stage fluorescence-based counterscreen for antagonists of the G-protein coupled receptor 7 (GPR7): cell-based dose response assay to identify antagonists of the melanin-concentrating hormone receptor 1 (MCHR1). [Related pubchem assays (depositor defined):AID1861, AID1880, AID1952, AID2148, AID2251, AID2257, AID485339]; format: functional;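 further: stimulated with 30 nM MCH peptide agonist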
[17] = cytotoxicity in HEK-293T cells, dose response, cytotoxicity control for BCR NF-kB inhibitor project, luminescence, B-cell screen hits (AID 489021); format: functional, cell-based;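 further: HEK-293T cells carrying an NF-kB luciferase reporter; cells exposed to compound for about 14 hours before viability readout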
[18] = biological target: Cytochrome P450 2D6 (Homo sapiens, UniProt P10635);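 further: CYP2D6 member of a cytochrome P450 panel assay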
[19] = biological target: Metabotropic glutamate receptor 4 (Rattus norvegicus, UniProt P31423); experiment: Modulation of the Metabotropic Glutamate Receptor mGluR4: Rat PAM Potency. [Related pubchem assays (depositor defined):AID2437, AID2807]; format: functional
[20] = biological target: T5, Hexokinase HKDC1 (Homo sapiens, UniProt Q2TB90); experiment: HKDC1 hexokinase inhibitors, dose response, biochemical, W721R variant (AID 504729); format: functional
T5 sequence (Q2TB90 whole entry): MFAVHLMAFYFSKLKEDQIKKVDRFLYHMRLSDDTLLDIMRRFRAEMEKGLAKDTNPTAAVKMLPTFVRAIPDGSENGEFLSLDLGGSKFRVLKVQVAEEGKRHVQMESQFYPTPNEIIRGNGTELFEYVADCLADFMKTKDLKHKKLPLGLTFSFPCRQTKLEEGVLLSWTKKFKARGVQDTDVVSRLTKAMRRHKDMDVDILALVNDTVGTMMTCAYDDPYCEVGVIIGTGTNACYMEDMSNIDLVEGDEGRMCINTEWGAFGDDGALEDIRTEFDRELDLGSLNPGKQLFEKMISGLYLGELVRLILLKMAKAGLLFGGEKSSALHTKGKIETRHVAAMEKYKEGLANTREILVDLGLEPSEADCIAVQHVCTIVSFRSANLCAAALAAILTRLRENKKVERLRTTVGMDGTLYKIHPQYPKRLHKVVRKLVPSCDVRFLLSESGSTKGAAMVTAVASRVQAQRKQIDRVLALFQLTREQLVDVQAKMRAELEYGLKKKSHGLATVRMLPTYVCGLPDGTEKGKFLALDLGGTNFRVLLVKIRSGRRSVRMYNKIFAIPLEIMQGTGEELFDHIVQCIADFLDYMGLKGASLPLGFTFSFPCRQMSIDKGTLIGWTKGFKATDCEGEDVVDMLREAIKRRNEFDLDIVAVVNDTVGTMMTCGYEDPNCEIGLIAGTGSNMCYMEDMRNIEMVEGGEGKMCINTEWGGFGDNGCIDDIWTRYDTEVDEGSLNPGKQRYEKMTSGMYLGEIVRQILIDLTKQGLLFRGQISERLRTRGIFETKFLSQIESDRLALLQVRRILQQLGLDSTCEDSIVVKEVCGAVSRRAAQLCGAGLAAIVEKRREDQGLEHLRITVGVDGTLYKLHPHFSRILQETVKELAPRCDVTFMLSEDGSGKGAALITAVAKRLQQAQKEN

[21] = biological target: Tumor necrosis factor (Homo sapiens, UniProt P01375); experiment: TNFa-triggered NF-kB activation inhibitors, SAR follow-up, cell-based, revised (AID 2337); format: functional
[22] = biological target: Nucleotide-binding oligomerization domain-containing protein 1 (Homo sapiens, UniProt Q9Y239); experiment: NOD1 signaling inhibitors, SAR follow-up, revised (AID 2333); format: functional
[23] = test system: HEK293; experiment: cells; settings: Homo sapiens;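 further: cells exposed to compound for 14 hours overnight before viability readout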
[24] = biological target: Mu-type opioid receptor (Homo sapiens, UniProt P35372); experiment: SAR Analysis of Antagonists of the MOR Receptor using an Image-Based Assay - Set 3. [Related pubchem assays (depositor defined):AID1777, AID1785, AID1786, AID1966, AID2133, AID2136, AID2284, AID2285, AID2420]; format: functional
[25] = biological target: T6, Kappa-type opioid receptor (Homo sapiens, UniProt P41145); experiment: SAR analysis of small molecule antagonists of the kappa opioid receptor via a luminescent beta-arrestin assay - Set 4. [Related pubchem assays (depositor defined):AID1777, AID1778, AID1785, AID1786, AID1966, AID2133, AID2136, AID2285]; format: functional
[26] = biological target: Delta-type opioid receptor (Homo sapiens, UniProt P41143); experiment: SAR Analysis of Antagonists of the DOR Receptor using an Image-Based Assay - Set 3. [Related pubchem assays (depositor defined):AID1777, AID1785]; format: functional;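 further: U2OS cells expressing DOR1 and beta-arrestin GFP stimulated with 100 nM SNC80; imaging of GFP-tagged beta-arrestin moving into spots after receptor activation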
[27] = biological target: T6, Kappa-type opioid receptor; experiment: SAR analysis of Antagonists of the Kappa Opioid Receptor (KOR) using an Image-Based Assay - Set 4. [Related pubchem assays (depositor defined):AID1777, AID1785]; format: functional
[28] = biological target: C-C chemokine receptor type 6 (Homo sapiens, UniProt P51684); experiment: CCR6 receptor antagonists, dose response, cell-based, luminescent beta-arrestin readout (AID 504728); format: functional
[29] = biological target: Beta-galactosidase (Escherichia coli, UniProt Q8VNN2); experiment: beta-galactosidase enzyme inhibitors and activators, dose response, artefact control for CCR6 antagonist project, biochemical, E. coli enzyme, set 3 (AID 504712); format: functional
[30] = biological target: X-box-binding protein 1 (Homo sapiens, UniProt P17861); format: functional, Cricetulus griseus;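 further: confirmatory dose-response counter-screen serving a CHOP assay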
[31] = biological target: Bcl-2-like protein 10 (Homo sapiens, UniProt Q9HD36); experiment: displacers of TR3 peptide from Bcl-B, primary screen, selectivity assay for Bfl-1 inhibitor project, biochemical, fluorescence polarization, FITC-TR3 peptide (AID 748);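 further: fluorescence polarization from a fluorescein-labelled TR3 peptide binding purified Bcl-B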
[32] = biological target: Estrogen receptor beta (Homo sapiens, UniProt Q92731);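 further: recombinant ER-beta bound to coactivator SRC1 peptide in presence of estradiol agonist; inhibitors block coactivator peptide binding and lower the FRET signal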
[33] = biological target: T7, Eukaryotic translation initiation factor 2-alpha kinase 3 (Homo sapiens, UniProt Q9NZJ5); experiment: Dose response cell-based high-throughput screening assay to measure PERK inhibition. [Related pubchem assays: 1416 ]; format: functional
[34] = biological target: T7, Eukaryotic translation initiation factor 2-alpha kinase 3; experiment: Counterscreen assay for PERK inhibitors: Dose response cell-based high throughput screening assay to measure inhibition of PERK at 6 hours. [Related pubchem assays: 1522, 1416 ]; format: functional

CC1=C(C#N)C(=O)NC(=O)/C1=C\c1ccc(-c2ccc(C)cc2[N+](=O)[O-])o1
IC50 [1]: 13.1 µM (active)
EC50 [2]: 36.4 µM (active)
IC50 [3]: 5.46 µM (active)
EC50 [4]: 21.8 µM (active)
IC50 [5]: 35.6 µM (active)
IC50 [6]: 2.68 µM (active)
IC50 [7]: 50 µM (inactive)

OC(c1cccc(Cl)c1)c1nccc2ccccc12 (stereo unspecified)
AC50 [8]: 7.66 µM (active)

O=C(N/N=C/c1cccc(O)c1)c1ccc(COc2ccccc2Br)cc1
AC50 [9]: 4.82 µM (active)
IC50 [10]: > 150 µM (active)

COc1ccc2c(c1)c(=Cc1ccc(N(C)C)cc1)c1cc(-c3ccccc3)[n+](C)n12
IC50 [11]: 74.7 µM (inactive)
AC50 [12]: > 56 µM (inactive)
IC50 [13]: 4.56 µM (active)
AC50 [14]: 3.93 µM (active)
IC50 [15]: > 40.6 µM (inactive)

Cc1ccc(-n2ncc(Cl)c(OC3CCN(C(=O)OC(C)(C)C)CC3)c2=O)cc1
IC50 [16]: 5 µM (active)

CCOc1ccc(-n2c(SCC(=O)Nc3ccc4c(c3)OCCO4)nc3c(c2=O)SCC3)cc1
IC50 [17]: > 80 µM (inactive)
AC50 [18]: 8.91 µM (inconclusive)

O=C(Nc1ccc(N2C(=O)CCC2=O)c(Cl)c1)c1ccccn1
EC50 [19]: 6.89 µM (active)

CCOC(=O)c1ccc(NC(=O)CSc2n[nH]c(-c3ccncc3)n2)cc1
IC50 [20]: 12.1 µM (active)

CC1CCc2c(sc(NC(=O)c3ccc(Cl)cc3)c2C(=O)O)C1 (stereo unspecified)
IC50 [21]: 4.41 µM (active)
IC50 [22]: 1.37 µM (active)
IC50 [23]: 5.2 µM (active)

CCC(C)(C)c1ccc(S(=O)(=O)NCc2ccc(C(=O)NCCN(Cc3ccccc3)C(C)C)cc2)cc1
IC50 [24]: > 32 µM (inactive)
IC50 [25]: 1.19 µM (active)
IC50 [26]: > 32 µM (inactive)
IC50 [27]: 0.57 µM (active)

COc1ccc(N2C(=O)/C(=C/C=C/c3ccccc3[N+](=O)[O-])C(=O)NC2=S)cc1
IC50 [6]: 0.73 µM (active)
IC50 [28]: > 66.6 µM (inactive)
IC50 [29]: > 66.6 µM (inactive)
IC50 [7]: 50 µM (inactive)

C/N=C1\SC(CC(=O)Nc2ccc(F)cc2F)C(=O)N1/N=C/c1ccc(OC(F)F)c(OC)c1 (stereo unspecified)
Absolute IC50 (XBP1) [30]: 10 µM

c1coc(-c2nn3c(-c4ccco4)nnc3s2)c1
IC50 [31]: 86.5 µM (inactive)
IC50 [32]: 24 µM (active)

Cc1ccc(C)c(OCC(=O)Nc2cc(C(=O)O)cc(C(=O)O)c2)c1
EC50 [33]: > 55.7 µM (not active)
EC50 [34]: > 55.7 µM (not active)
